From patent publication US12662490B2, “Heterocyclic compounds” (Hoffmann-La Roche Inc., priority 2019, dated 2026) come the findings set out here.

In general, pIC50 refers to the IC50 on a negative log10 scale, so that one unit is a factor of ten.

pIC50: −log10 of the molar value.

The target in the test is T1, MAGL (Homo sapiens, UniProt Q99685).
T1 sequence (Q99685 1-303): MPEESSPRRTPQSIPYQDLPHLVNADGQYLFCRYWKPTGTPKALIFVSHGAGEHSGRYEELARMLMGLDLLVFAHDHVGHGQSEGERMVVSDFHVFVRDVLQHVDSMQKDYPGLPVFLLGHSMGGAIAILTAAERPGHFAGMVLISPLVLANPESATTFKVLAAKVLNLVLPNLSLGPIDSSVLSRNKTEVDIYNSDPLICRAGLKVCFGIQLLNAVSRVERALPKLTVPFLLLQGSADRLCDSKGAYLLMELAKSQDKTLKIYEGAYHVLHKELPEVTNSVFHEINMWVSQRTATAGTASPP
In words: 2-AG assay (MAGL inhibitory activity; hydrolysis of 2-arachidonoylglycerol to arachidonic acid followed by mass spectrometry). The test is classed as biochemical. The following applies: 15 min preincubation at RT, 8 μM 2-arachidonoylglycerol, 30 min at RT, RapidFire MS readout. An outline of the steps: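 Compounds (final 12.5 μM to […], 3-fold steps) preincubated 15 min at RT with MAGL ([…]) in 50 mM TRIS, 1 mM EDTA, Tween buffer. Reaction started with 8 μM 2-arachidonoylglycerol, run 30 min at RT, quenched with ACN containing d8-arachidonic acid. Arachidonic acid quantified by RapidFire SPE-triple quadrupole MS (negative ESI), activity from arachidonic acid/d8 ratio.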
Regarding `N#Cc1cc(-c2cc(F)cc(C(=O)N3CCN4C[C@H](c5c[nH]c(C(F)(F)F)cc5=O)OC[C@@H]4C3)c2Cl)c[nH]1` [Example 151, 4-[3-[(3S,9aS)-3-[4-oxo-6-(trifluoromethyl)-1H-pyridin-3-yl]-3,4,6,7,9,9a-hexahydro-1H-pyrazino[2,1-c][1,4]oxazine-8-carbonyl]-2-chloro-5-fluoro-phenyl]-1H-pyrrole-2-carbonitrile], the pIC50 is 6.24.

The compound `N#Cc1ncc(-c2cccc(C(=O)N3CCN4C[C@@](O)(c5ccc(F)c(F)c5)OC[C@@H]4C3)c2Cl)[nH]1` [Example 152, 5-[3-[(3R,9aS)-3-(3,4-difluorophenyl)-3-hydroxy-1,4,6,7,9,9a-hexahydropyrazino[2,1-c][1,4]oxazine-8-carbonyl]-2-chloro-phenyl]-1H-imidazole-2-carbonitrile] gave a negative logarithm of the IC50 (pIC50) of 6.24.

For the compound `COc1cccc(C(=O)N2CCN3C[C@@](O)(c4ccc(C(F)(F)F)nc4C)OC[C@@H]3C2)c1Cl` [Example 153, [(3R,9aS)-3-hydroxy-3-[2-methyl-6-(trifluoromethyl)-3-pyridyl]-1,4,6,7,9,9a-hexahydropyrazino[2,1-c][1,4]oxazin-8-yl]-(2-chloro-3-methoxy-phenyl)methanone], the pIC50 was 6.15. This pIC50 and that of the compound before are within 0.2 log units of each other.

Consider `COc1cccc(C(=O)N2CCN3C[C@@](O)(c4cc(Cl)cc(-c5cnco5)c4)OC[C@@H]3C2)c1Cl` [Example 154, [(3R,9aS)-3-(3-chloro-5-oxazol-5-yl-phenyl)-3-hydroxy-1,4,6,7,9,9a-hexahydropyrazino[2,1-c][1,4]oxazin-8-yl]-(2-chloro-3-methoxy-phenyl)methanone], for which the negative logarithm of the IC50 (pIC50) is 6.11. The pIC50 values of the last two compounds are within 0.2 log units of each other.

In the case of `COc1cccc(C(=O)N2CCN3C[C@@H](c4ccc(C(F)(F)F)[nH]c4=O)OC[C@@H]3C2)c1Cl` [Example 155, 3-[(3R,9aS)-8-(2-chloro-3-methoxy-benzoyl)-3,4,6,7,9,9a-hexahydro-1H-pyrazino[2,1-c][1,4]oxazin-3-yl]-6-(trifluoromethyl)-1H-pyridin-2-one], the pIC50 is 6.11.

For `COc1cccc(C(=O)N2CCN3CC(c4ccc(F)c(-c5ccn(C)c5)c4)OC[C@@H]3C2)c1Cl` (stereo partly drawn) [Example 156, [(9aS)-3-[4-fluoro-3-(1-methylpyrrol-3-yl)phenyl]-3,4,6,7,9,9a-hexahydro-1H-pyrazino[2,1-c][1,4]oxazin-8-yl]-(2-chloro-3-methoxy-phenyl)methanone], the pIC50 is 6.09.

In the case of `COc1cccc(C(=O)N2CCN3C[C@@](O)(c4cc(Br)no4)OC[C@@H]3C2)c1Cl` [Example 157, [(3S,9aS)-3-(3-bromoisoxazol-5-yl)-3-hydroxy-1,4,6,7,9,9a-hexahydropyrazino[2,1-c][1,4]oxazin-8-yl]-(2-chloro-3-methoxy-phenyl)methanone], the pIC50 is 6.07. This pIC50 and that of the compound before are within 0.2 log units of each other.

As for `O=C(c1cccc(-c2c[nH]ncc2=O)c1Cl)N1CCN2C[C@@H](c3ccc(F)c(Cl)c3)OC[C@@H]2C1` [Example 158, 5-[3-[(3R,9aS)-3-(3-chloro-4-fluoro-phenyl)-3,4,6,7,9,9a-hexahydro-1H-pyrazino[2,1-c][1,4]oxazine-8-carbonyl]-2-chloro-phenyl]-1H-pyridazin-4-one], the pIC50 was 5.99.

`COc1ccc(F)c(C(=O)N2CCN3C[C@H](c4ccc(F)c(Cl)c4)OC[C@@H]3C2)c1Cl` [Example 159, [(3S,9aS)-3-(3-chloro-4-fluoro-phenyl)-3,4,6,7,9,9a-hexahydro-1H-pyrazino[2,1-c][1,4]oxazin-8-yl]-(2-chloro-6-fluoro-3-methoxy-phenyl)methanone] had a pIC50 of 5.83. This pIC50 and that of the compound before are within 0.2 log units of each other.

In the case of `COc1ccc(-c2nc([C@]3(O)CN4CCN(C(=O)c5cccc(OC)c5Cl)C[C@H]4CO3)cs2)cn1` [Example 160, [(3S,9aS)-3-hydroxy-3-[2-(6-methoxy-3-pyridyl)thiazol-4-yl]-1,4,6,7,9,9a-hexahydropyrazino[2,1-c][1,4]oxazin-8-yl]-(2-chloro-3-methoxy-phenyl)methanone], the negative-log IC50 (pIC50) was 5.80.
